Laboratory results as given in PubChem BioAssay AID1259407 (Chemical Carcinogenesis Research Information System (CCRIS), 2018).
Active and inactive are the calls of the source. No rule for the calls is given here.

System: CCRIS mutagenicity, Ames/micronucleus/aberration tests
Assay: CCRIS mutagenicity studies
[1] = Test System: AMES SALMONELLA TYPHIMURIUM, Strain/Indicator: TA98, Metabolic Activation: NONE, Method: STANDARD PLATE

Measured: mutagenic call

COc1cc2c(c(OC)c1OC)-c1ccc(OC)c(=O)cc1[C@@H](NC(C)=O)CC2
active: End Point: IN VITRO CHROMOSOMAL ABERRATIONS, Test System: CHINESE HAMSTER OVARY CELLS, Metabolic Activation: NONE active; positive (ploidy changes) | End Point: IN VITRO MICRONUCLEUS, Test System: CHL/IU CELLS, Metabolic Activation: NONE active; positive | End Point: IN VIVO MICRONUCLEUS, Test System: BLOOD ERYTHROCYTES, Species: MOUSE, Strain/Sex: CD-1/MALE, Route: ORAL active; positive | End Point: In vitro micronucleus, Test System: Mouse lymphoma L5178Y cells, Metabolic Activation: None active; positive | End Point: In vivo micronucleus, Test System: Micronucleated, binucleated and multinucleated hepatocytes, Species: Mouse, Strain/Sex: ddY/Male, Route: Intravenous active; positive for binucleated and multinucleated cells when agent administered after | Test System: MOUSE LYMPHOMA, Strain/Indicator: L5178Y (TK+/TK-), Metabolic Activation: NONE active; positive | Test System: MOUSE LYMPHOMA, Strain/Indicator: L5178Y(TK+/TK-), Metabolic Activation: NONE, Method: MICROWELL active; positive
inactive: End Point: IN VITRO CHROMOSOMAL ABERRATIONS, Test System: CHINESE HAMSTER OVARY CELLS, Metabolic Activation: RAT, LIVER, S-9, AROCLOR 1254 inactive; negative | Test System: AMES SALMONELLA TYPHIMURIUM, Strain/Indicator: TA98, Metabolic Activation: HAMSTER, LIVER, S-9, AROCLOR 1254, Method: STANDARD PLATE inactive; negative | [1] inactive; negative | Test System: AMES SALMONELLA TYPHIMURIUM, Strain/Indicator: TA98, Metabolic Activation: RAT, LIVER, S-9, AROCLOR 1254, Method: STANDARD PLATE inactive; negative | Test System: AMES SALMONELLA TYPHIMURIUM, Strain/Indicator: TA100, Metabolic Activation: HAMSTER, LIVER, S-9, AROCLOR 1254, Method: STANDARD PLATE inactive; negative | Test System: AMES SALMONELLA TYPHIMURIUM, Strain/Indicator: TA100, Metabolic Activation: NONE, Method: STANDARD PLATE inactive; negative | Test System: AMES SALMONELLA TYPHIMURIUM, Strain/Indicator: TA100, Metabolic Activation: RAT, LIVER, S-9, AROCLOR 1254, Method: STANDARD PLATE inactive; negative | Test System: AMES SALMONELLA TYPHIMURIUM, Strain/Indicator: TA1535, Metabolic Activation: HAMSTER, LIVER, S-9, AROCLOR 1254, Method: STANDARD PLATE inactive; negative | Test System: AMES SALMONELLA TYPHIMURIUM, Strain/Indicator: TA1535, Metabolic Activation: NONE, Method: STANDARD PLATE inactive; negative | Test System: AMES SALMONELLA TYPHIMURIUM, Strain/Indicator: TA1535, Metabolic Activation: RAT, LIVER, S-9, AROCLOR 1254, Method: STANDARD PLATE inactive; negative | Test System: AMES SALMONELLA TYPHIMURIUM, Strain/Indicator: TA1537, Metabolic Activation: HAMSTER, LIVER, S-9, AROCLOR 1254, Method: STANDARD PLATE inactive; negative | Test System: AMES SALMONELLA TYPHIMURIUM, Strain/Indicator: TA1537, Metabolic Activation: NONE, Method: STANDARD PLATE inactive; negative | Test System: AMES SALMONELLA TYPHIMURIUM, Strain/Indicator: TA1537, Metabolic Activation: RAT, LIVER, S-9, AROCLOR 1254, Method: STANDARD PLATE inactive; negative | Test System: AMES SALMONELLA TYPHIMURIUM, Strain/Indicator: TA1538, Metabolic Activation: HAMSTER, LIVER, S-9, AROCLOR 1254, Method: STANDARD PLATE inactive; negative | Test System: AMES SALMONELLA TYPHIMURIUM, Strain/Indicator: TA1538, Metabolic Activation: NONE, Method: STANDARD PLATE inactive; negative | Test System: AMES SALMONELLA TYPHIMURIUM, Strain/Indicator: TA1538, Metabolic Activation: RAT, LIVER, S-9, AROCLOR 1254, Method: STANDARD PLATE inactive; negative | Test System: MOUSE LYMPHOMA, Strain/Indicator: L5178Y (TK+/TK-), Metabolic Activation: NONE, Method: SUSPENSION/PLATE inactive; negative. reevaluation of results: negative | Test System: MOUSE LYMPHOMA, Strain/Indicator: L5178Y (TK+/TK-), Metabolic Activation: RAT, LIVER, S-9, AROCLOR 1254, Method: SUSPENSION/PLATE inactive; negative. reevaluation of results: negative | Test System: Mouse lymphoma, Strain/Indicator: L5178Y (tk+/tk-)/Trifluorothymidine, Metabolic Activation: None, Method: Microtiter inactive; negative

Fc1cnc2c(c1)cc(F)c1ccccc12
inactive: Test System: AMES SALMONELLA TYPHIMURIUM, Strain/Indicator: TA100, Metabolic Activation: RAT, LIVER, S-9, PHENOBARBITAL AND 5,6-BENZOFLAVONE, Method: PREINCUBATION inactive; negative

Cc1ccc2c(c1O)C(=O)c1ccccc1C2=O
active: Test System: AMES SALMONELLA TYPHIMURIUM, Strain/Indicator: TA98, Metabolic Activation: RAT, LIVER, S-9, PCB, Method: PREINCUBATION active; positive | Test System: AMES SALMONELLA TYPHIMURIUM, Strain/Indicator: TA100, Metabolic Activation: RAT, LIVER, S-9, PCB, Method: PREINCUBATION active; positive
inactive: Test System: AMES SALMONELLA TYPHIMURIUM, Strain/Indicator: TA98, Metabolic Activation: NONE, Method: PREINCUBATION inactive; negative | Test System: AMES SALMONELLA TYPHIMURIUM, Strain/Indicator: TA100, Metabolic Activation: NONE, Method: PREINCUBATION inactive; negative

Clc1ccc(-c2nc3ccccc3o2)cc1
inactive: [1] inactive; negative | Test System: AMES SALMONELLA TYPHIMURIUM, Strain/Indicator: TA98, Metabolic Activation: S-9, Method: STANDARD PLATE inactive; negative
